Measurements taken from patent publication US5084442A, “Cyclic growth hormone releasing factor analogs and method for the manufacture thereof” (Hoffmann-La Roche Inc., priority 1988, dated 1992).

Test system: dispersed rat anterior pituitary cells (release of rat growth hormone)
Assay: In Vitro (Cell Dispersion) Assay of GRF: growth hormone release measured by RIA
Type: cell-based, rat (Sprague-Dawley)
Details: growth hormone release from cultured rat pituitary cells, 4 hours of incubation, peptide 0.8 to 200 fmol per ml; compared with natural GRF(1-44)-NH2 (= 1.0)
Protocol: In Vitro (Cell Dispersion) Assay of GRF
Pituitaries from 30-40 male Sprague-Dawley rats (175 g) were removed aseptically after decapitation. The anterior lobes were collected, washed 3 times in sterile Hepes buffer (0.025 M) (pH 7.35) and dispersed at 37° in 20-30 ml Hepes buffer (pH 7.35) containing collagenase (4 mg per ml) and Dispase (Protease grade II, 2 mg per ml). After gentle 100-110 min vortexing and trituration by Pasteur pipette, the dispersed cells were separated by centrifugation (150×g, 4 min) and re-suspended in Hepes buffer containing neuraminidase ([…]), and 200 µg/ml ethylenediaminetetraacetic acid (EDTA) disodium salt, pH 7.35, for 10 min.
The cells were washed twice with plating medium and plated on multiwell-plates (1.5×10^5 cells per ml) using the following defined medium: F-12/DMEM/BGJ (6:3:1) (Gibco: 430-1700/430-1600/320-2591) with 2 g BSA/1., 2.38 g Hepes/1.50 mg PSN antibiotic mixture (Gibco Laboratories), 10 mg/l transferring (Sigma T2252) with 1.83 g NaHCO3 /l (Baker 3506). The medium in each well was supplemented either with a sample of the novel GRF peptide or natural GRF(1-44)-NH2 at concentrations ranging from 0.8 to 200 fmol per ml of medium. Control wells contained no supplement. Plating was done with this medium added with 2% fetal calf serum to ensure rapid fixation of the cells.
On the fourth day, the cells were washed twice with the defined medium without fetal calf serum. Finally, 900 μl of defined medium was added to each well plus 100 μl of the same medium containing each individual treatment, in triplicate. After 4 hours of incubation the medium was collected and diluted as required to conduct radioimmunoassay (RIAs) for rat growth hormone.
RIAs for rat growth hormone were conducted using Sinha's anti-murine GH immune serum and procedures according to the National Pituitary Agency using protein A to precipitate antibody antigen complex.

Compound | RELATIVE POTENCY
Cyclo^8,12;21,25 [Asp^8, Ala^15 ]-GRF(1-29)-NH2 | 2.24
Cyclo^21,25 [desNH2 Tyr^1,Ala^15 ]-GRF(1-29)-NH2 | 1.47
Cyclo^21,25 [Ala^15 ]-GRF(1-29)-NH2 [Cyclo^21,25 --[Ala^15]--GRF(1-29)--NH2] | 1.27
CC[C@H](C)[C@H](NC(=O)[C@H](C)NC(=O)[C@H](CC(=O)O)NC(=O)[C@H](C)NC(=O)[C@@H](N)Cc1ccc(O)cc1)C(=O)N[C@@H](Cc1ccccc1)C(=O)N[C@H](C(=O)N[C@@H](CC(N)=O)C(=O)N[C@@H](CO)C(=O)N[C@@H](Cc1ccc(O)cc1)C(=O)N[C@@H](CCCNC(=N)N)C(=O)N[C@@H](CCCCN)C(=O)N[C@H](C(=O)N[C@@H](CC(C)C)C(=O)NCC(=O)N[C@@H](CCC(N)=O)C(=O)N[C@@H](CC(C)C)C(=O)N[C@@H](CO)C(=O)N[C@@H](C)C(=O)N[C@@H](CCCNC(=N)N)C(=O)N[C@@H](CCCCN)C(=O)N[C@@H](CC(C)C)C(=O)N[C@@H](CC(C)C)C(=O)N[C@@H](CCC(N)=O)C(=O)N[C@@H](CC(=O)O)C(=O)N[C@H](C(=O)N[C@@H](CCSC)C(=O)N[C@@H](CO)C(=O)N[C@@H](CCCNC(=N)N)C(=O)N[C@@H](CCC(N)=O)C(=O)N[C@@H](CCC(N)=O)C(=O)NCC(=O)N[C@@H](CCC(=O)O)C(=O)N[C@@H](CO)C(=O)N[C@@H](CC(N)=O)C(=O)N[C@@H](CCC(N)=O)C(=O)N[C@@H](CCC(=O)O)C(=O)N[C@@H](CCCNC(=N)N)C(=O)NCC(=O)N[C@@H](C)C(=O)N[C@@H](CCCNC(=N)N)C(=O)N[C@@H](C)C(=O)N[C@@H](CCCNC(=N)N)C(=O)N[C@@H](CC(C)C)C(N)=O)[C@@H](C)CC)C(C)C)[C@@H](C)O [GRF(1-44)--NH2, GRF(1-44)-NH2, reference compound] | 1.0
Cyclo^21,21 [N-MethylTyr^1, D-Ala^2, Ala^15 ]-GRF(1-29)-NH2 | 1.92
Cyclo^21,25 [D-Ala^2, Ala^15 ]-GRF(1-29)-NH2 | 1.99
Cyclo^8,12;21,25 [N-MethylTyr^1,D-Ala^2, Asp^8, Ala^15 ]-GRF(1-29)-NH2 | 0.61
